Test results taken from paper PMC8780263, “Green by Design: Convergent Synthesis, Computational Analyses, and Activity Evaluation of New FXa Inhibitors Bearing Peptide Triazole Linking Units” (Pharmaceutics, 2021).
Where two headings read alike, the source gives them in different places.

Experiments:
[1] = tested on: HeLa cells; experiment: Cell viability analysis, CCK-8 method, HeLa; type: cell-based, human; details: 48 h; 10 mM, 100 μM, 10 μM, 100 nM, 10 nM
Procedure: (§1) The human cell lines (HEK293 and HeLa) applied in the cell viability assays were purchased from ATCC (Manassas, VA, USA). HEK293 and HeLa cell lines were cultivated in Dulbecco’s modified Eagle medium, supplemented with 10% fetal bovine serum, 100 units/mL of penicillin and […] of streptomycin and kept at 37 °C in a humidified atmosphere containing 5% CO2. A 100-μL aliquot of adherent cells was used to seed 96-well cell culture plates at 25,000 cells/well and allowed to adhere for 16 h prior to compound addition. Cells were treated with each compound in DMEM containing 10% FBS for 48 h. Subsequently, 10 μL of Cell Counting Kit-8 reagent (CCK-8; Sigma-Aldrich, Merck KGaA, Darmstadt Germany) was added into each well and incubated for 4 h at 37 °C in a humidified atmosphere containing 5% CO2. The absorbance measurement detected the cell viability at 450 nm in a Synergy H1 microplate reader (Biotek Instruments, Winooski, VT, USA). All experiments were performed in triplicate.
(§2) Cell viability assays were performed with HeLa and HEK293 cells using the CCK-8 method. Compounds 8a, 8k, 8l and 8p were assayed with decreasing concentrations: 10 mM (1), 100 μM (2), 10 μM (3), 100 nM (4) and 10 nM (5) (Figure 6).
(§3) Figure 6 Effect of the selected compounds on cell viability using the CCK-8 assay in (A) HeLa and (B) HEK93 cell lines. Concentrations used were 10 mM (1), 100 μM (2), 10 μM (3), 100 nM (4), and 10 nM (5). The upper and lower lines define ± 2 SD limits from the average value of control wells treated only with the vehicle (DMSO 2%). All values are means ± SD (n = 3). SD: standard deviation.

[2] = tested on: HEK293 cells; experiment: Cell viability analysis, CCK-8 method, HEK293; type: cell-based, human; details: 48 h; 10 mM, 100 μM, 10 μM, 100 nM, 10 nM
Procedure: as §1, §2, §3

[3] = biological target: FXa enzyme (Bos taurus, UniProt P00743); experiment: FXa in vitro inhibition assay (fluorometric SensoLyte Factor Xa Assay Kit); details: for inhibition at 100 µM: read-out: %Inhibition FXa, inhibition percentage at 100 μM; for %Inhibition FXa: inhibition percentage at 100 μM
Sequence of FXa enzyme (P00743 234-492 limits assumed): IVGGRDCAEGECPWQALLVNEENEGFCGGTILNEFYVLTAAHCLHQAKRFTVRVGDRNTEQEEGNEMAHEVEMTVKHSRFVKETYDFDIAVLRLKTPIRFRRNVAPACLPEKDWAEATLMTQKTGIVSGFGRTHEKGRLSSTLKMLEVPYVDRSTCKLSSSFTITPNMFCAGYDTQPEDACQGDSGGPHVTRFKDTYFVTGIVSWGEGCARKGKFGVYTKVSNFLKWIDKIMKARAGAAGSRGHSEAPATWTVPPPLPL
Sequence of FXa enzyme (P00743 41-180 partner limits assumed): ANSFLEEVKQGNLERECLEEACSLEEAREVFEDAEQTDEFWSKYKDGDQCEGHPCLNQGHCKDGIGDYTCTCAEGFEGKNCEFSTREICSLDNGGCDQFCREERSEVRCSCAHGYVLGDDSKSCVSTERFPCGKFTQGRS
Procedure: The FXa inhibition capacities of the newly synthesized molecules were evaluated using the SensoLyte® 520 Factor Xa Assay Kit.

| SMILES | inhibition at 100 µM [3] [%] | melting point [°C] | also measured |
| --- | --- | --- | --- |
| O=C(Cn1cc(-c2ccc(Cl)cc2)nn1)Nc1ccc(N2CCSCC2=O)c(F)c1 [Compound 8l] | ≥ 50 |  | toxicity in HeLa cells (cell viability, CCK-8) [1]: no signs of toxicity; cell mortality in HEK-293 cells (cell viability, CCK-8) [2]: did not show any cell mortality; IC50 [3]: 52.9 ± 5.5 µM |
| CC(C)(C)OC(=O)N1CCN(c2ccc(NC(=O)Cn3cc(-c4ccc(Cl)cc4)nn3)cc2F)C(=O)C1 [Compound 8j] |  |  | %Inhibition FXa [3]: 23% |
| O=C(Cn1cc(-c2ccc(Cl)cc2)nn1)Nc1ccc(N2CCOCC2=O)c(F)c1 [Compound 8k] | ≥ 50 |  | toxicity in HeLa cells (cell viability, CCK-8) [1]: no signs of toxicity; cell mortality in HEK-293 cells (cell viability, CCK-8) [2]: did not show any cell mortality; IC50 [3]: 76.2 ± 16.9 µM |
| O=C(Cn1cc(-c2ccc(Br)cc2)nn1)Nc1ccc(N2CCCCC2=O)c(F)c1 [Compound 8m] | 29 | 300 to 301 |  |
| CC(C)(C)OC(=O)N1CCN(c2ccc(NC(=O)Cn3cc(-c4ccc(F)cc4)nn3)cc2F)C(=O)C1 [Compound 8f] |  |  | %Inhibition FXa [3]: 44% |
| O=C(Cn1cc(-c2ccc(Br)cc2)nn1)Nc1ccc(N2CCSCC2=O)c(F)c1 [Compound 8p] | ≥ 50 |  | toxicity in HeLa cells (cell viability, CCK-8) [1]: no signs of toxicity; cell mortality in HEK-293 cells (cell viability, CCK-8) [2]: did not show any cell mortality; IC50 [3]: 17.2 ± 0.8 µM |
| CC(C)(C)OC(=O)N1CCN(c2ccc(NC(=O)Cn3cc(-c4ccccc4)nn3)cc2F)C(=O)C1 [Compound 8b] | 24 | 195 to 196 |  |
| O=C(Cn1cc(-c2ccccc2)nn1)Nc1ccc(N2CCOCC2=O)c(F)c1 [Compound 8c] | 17 | 254 to 255 |  |
| O=C(Cn1cc(-c2ccc(Cl)cc2)nn1)Nc1ccc(N2CCCCC2=O)c(F)c1 [Compound 8i] | 29 | 302 to 303 |  |
| O=C(Cn1cc(-c2ccccc2)nn1)Nc1ccc(N2CCCCC2=O)c(F)c1 [Compound 8a] | ≥ 50 |  | toxicity in HeLa cells (cell viability, CCK-8) [1]: no signs of toxicity; cell mortality in HEK-293 cells (cell viability, CCK-8) [2]: did not show any cell mortality; IC50 [3]: 41.2 ± 1.2 µM |
| O=C(Cn1cc(-c2ccccc2)nn1)Nc1ccc(N2CCSCC2=O)c(F)c1 [Compound 8d] | 33 | 276 to 277 |  |
| O=C(Cn1cc(-c2ccc(F)cc2)nn1)Nc1ccc(N2CCSCC2=O)c(F)c1 [Compound 8h] | 25 | 266 to 267 |  |
| Cc1ccc(-c2cn(CC(=O)Nc3ccc(N4CCOCC4=O)c(F)c3)nn2)cc1 [Compound 8s] | 37 | 282 to 283 |  |
| O=C(Cn1cc(-c2ccc(Br)cc2)nn1)Nc1ccc(N2CCOCC2=O)c(F)c1 [Compound 8o] | 37 | 302 to 303 |  |
| CC(C)(C)OC(=O)N1CCN(c2ccc(NC(=O)Cn3cc(-c4ccc(Br)cc4)nn3)cc2F)C(=O)C1 [Compound 8n] |  |  | %Inhibition FXa [3]: 22% |
| O=C(Cn1cc(-c2ccc(F)cc2)nn1)Nc1ccc(N2CCOCC2=O)c(F)c1 [Compound 8g] | 36 | 273 to 274 |  |
| Cc1ccc(-c2cn(CC(=O)Nc3ccc(N4CCN(C(=O)OC(C)(C)C)CC4=O)c(F)c3)nn2)cc1 [Compound 8r] | 27 | 204 to 205 |  |
| CCOC(=O)c1ccc(OC(=O)CCCCCN=C(N)N)cc1.CS(=O)(=O)O [Gabexate mesylate, reference compound] |  |  | IC50 ([3]; FXa, dilution series 1 nM to 100 μM, triplicates): 0.34 ± 0.1 µM; %Inhibition FXa [3]: 93% |
| O=C(Cn1cc(-c2ccc(F)cc2)nn1)Nc1ccc(N2CCCCC2=O)c(F)c1 [Compound 8e] | 17 |  |  |
| Cc1ccc(-c2cn(CC(=O)Nc3ccc(N4CCSCC4=O)c(F)c3)nn2)cc1 [Compound 8t] | 31 | 285 to 286 |  |
| Cc1ccc(-c2cn(CC(=O)Nc3ccc(N4CCCCC4=O)c(F)c3)nn2)cc1 [Compound 8q] | 21 | 301 to 302 |  |
